Measurements published in US11566007B2, “Ras inhibitors” (Revolution Medicines, Inc., priority 2019, dated 2023).
Several values for one entry are separate records, joined by “and”; a condition that tells them apart may be missing. Equal entries are not always repeated. Where two headings read alike, the source gives them in different places.

How the values were obtained:
KRAS G12V = KRAS G12V (Homo sapiens (Human), UniProt P01116+P62937, G12V); assay: Ras-Raf (BRAF RBD) disruption / FRET / MOA assay, KRAS G12V; format: biochemical; details: read-out: IC50* KRAS G12V FRET data
Outline: (§1)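 TR-FRET read-out: a drop in ratio relative to DMSO wells marks disruption of the Ras:RAF complex, reported as IC50. Compounds (3-fold series, 10 points, top 30 μM final) incubated 3 h at 25° C before Eu-anti-His 10 nM and APC-anti-GST 50 nM, 1.5 h more.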

NRAS G12C = NRAS G12C (Homo sapiens (Human), UniProt P01111+P62937, G12C); assay: Ras-Raf (BRAF RBD) disruption / FRET / MOA assay, NRAS G12C; format: biochemical; details: read-out: IC50* NRAS G12C FRET data
Outline: as §1

KRAS WT = KRAS WT (Homo sapiens (Human), UniProt P01116+P62937); assay: Ras-Raf (BRAF RBD) disruption / FRET / MOA assay, KRAS WT; format: biochemical; details: read-out: IC50* KRAS WT FRET data
Outline: as §1

KRAS G12D = KRAS G12D (Homo sapiens (Human), UniProt P01116+P62937, G12D); assay: Ras-Raf (BRAF RBD) disruption / FRET / MOA assay, KRAS G12D; format: biochemical; details: Ras-Raf disruption/FRET/MOA assay; class symbols; read-out: KRAS G12D FRET data IC50
Outline: as §1

K-Ras G13C = K-Ras G13C (Homo sapiens (Human), UniProt P01116+P62937, G13C); assay: Ras-Raf (BRAF RBD) disruption / FRET / MOA assay, KRAS G13C; format: biochemical; details: KRAS G13C; Ras-Raf disruption/FRET/MOA assay; read-out: IC50* KRAS G13C FRET data
Outline: as §1

KRAS G13D = KRAS G13D (Homo sapiens (Human), UniProt P01116+P62937, G13D); assay: Ras-Raf (BRAF RBD) disruption / FRET / MOA assay, KRAS G13D; format: biochemical; details: read-out: IC50* KRAS G13D FRET data
Outline: as §1

K-Ras G12C = K-Ras G12C (Homo sapiens (Human), UniProt P01116+P62937, G12C); assay: Ras-Raf (BRAF RBD) disruption / FRET / MOA assay, KRAS G12C; format: biochemical; details: KRAS G12C; Ras-Raf disruption/FRET/MOA assay; read-out: IC50* KRAS G12C FRET data
Outline: as §1

KRAS G12S = KRAS G12S (Homo sapiens (Human), UniProt P01116+P62937, G12S); assay: Ras-Raf (BRAF RBD) disruption / FRET / MOA assay, KRAS G12S; format: biochemical; details: Ras-Raf disruption/FRET/MOA assay; class symbols; read-out: KRAS G12S FRET data IC50
Outline: as §1

NCI-H358 (K-Ras G12C) = assay: CellTiter-Glo cell viability assay, NCI-H358; format: cell-based, human; details: NCI-H358, 5-day treatment, class symbols, read-out: Additional H358 Cell Viability assay data (K-Ras G12C, IC50)
Outline: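 Steps: compound dispensed into wells holding cells; incubation to day 5; ~30 min room-temperature equilibration; luminescence read; sample signal divided by mean DMSO signal, times 100; four-parameter logistic curve fit.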

[1] = system: NCI-H358 cells (K-Ras G12C); assay: Potency assay: pERK in NCI-H358 cells; format: cell-based, human; details: Homo sapiens, NCI-H358; H358 KRAS G12C; read-out: pERK EC50
Outline: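 Inhibition of cellular pERK after a 4 h treatment, detected by AlphaLISA or In-Cell Western. IC50 from a four-parameter concentration-response fit.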

Sequence of KRAS G12V (P01116-2 other isoform, or with tags, fused parts or gaps G12V): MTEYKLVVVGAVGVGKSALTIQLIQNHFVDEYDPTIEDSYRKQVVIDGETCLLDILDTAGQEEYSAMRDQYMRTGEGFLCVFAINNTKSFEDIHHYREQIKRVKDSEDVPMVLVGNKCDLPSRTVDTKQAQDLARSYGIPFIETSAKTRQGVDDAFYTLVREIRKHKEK
Sequence of KRAS G12V (P62937 whole entry): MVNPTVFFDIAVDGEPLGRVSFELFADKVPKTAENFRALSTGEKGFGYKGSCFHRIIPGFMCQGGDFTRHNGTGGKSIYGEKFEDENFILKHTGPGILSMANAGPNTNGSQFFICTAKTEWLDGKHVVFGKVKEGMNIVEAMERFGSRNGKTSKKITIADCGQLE
Sequence of KRAS G13D (P01116-2 other isoform, or with tags, fused parts or gaps G13D): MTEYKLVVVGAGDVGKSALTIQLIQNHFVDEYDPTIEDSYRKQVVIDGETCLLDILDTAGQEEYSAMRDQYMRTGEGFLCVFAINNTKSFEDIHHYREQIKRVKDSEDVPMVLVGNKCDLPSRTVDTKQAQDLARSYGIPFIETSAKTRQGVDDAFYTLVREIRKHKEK
Sequence of KRAS G13D (P62937 whole entry): as the sequence (P62937 whole entry) above
Sequence of K-Ras G12C (P01116-2 other isoform, or with tags, fused parts or gaps G12C): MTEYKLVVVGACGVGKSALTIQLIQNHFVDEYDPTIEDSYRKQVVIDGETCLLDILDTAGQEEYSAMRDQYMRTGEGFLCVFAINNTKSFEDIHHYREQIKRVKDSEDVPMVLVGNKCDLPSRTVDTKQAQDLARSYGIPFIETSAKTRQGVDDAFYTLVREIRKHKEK
Sequence of K-Ras G12C (P62937 whole entry): as the sequence (P62937 whole entry) above
Sequence of KRAS G12D (P01116-2 other isoform, or with tags, fused parts or gaps G12D): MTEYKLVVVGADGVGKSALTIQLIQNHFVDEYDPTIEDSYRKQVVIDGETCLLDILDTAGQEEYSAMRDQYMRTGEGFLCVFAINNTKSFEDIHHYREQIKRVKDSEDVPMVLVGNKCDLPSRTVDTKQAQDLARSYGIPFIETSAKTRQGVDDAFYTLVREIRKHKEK
Sequence of KRAS G12D (P62937 whole entry): as the sequence (P62937 whole entry) above
Sequence of KRAS G12S (P01116-2 other isoform, or with tags, fused parts or gaps G12S): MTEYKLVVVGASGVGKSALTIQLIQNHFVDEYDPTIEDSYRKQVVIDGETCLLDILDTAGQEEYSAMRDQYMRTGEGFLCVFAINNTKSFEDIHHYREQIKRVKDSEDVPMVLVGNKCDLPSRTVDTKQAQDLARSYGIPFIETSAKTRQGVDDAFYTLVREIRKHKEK
Sequence of KRAS G12S (P62937 whole entry): as the sequence (P62937 whole entry) above
Sequence of K-Ras G13C (P01116-2 other isoform, or with tags, fused parts or gaps G13C): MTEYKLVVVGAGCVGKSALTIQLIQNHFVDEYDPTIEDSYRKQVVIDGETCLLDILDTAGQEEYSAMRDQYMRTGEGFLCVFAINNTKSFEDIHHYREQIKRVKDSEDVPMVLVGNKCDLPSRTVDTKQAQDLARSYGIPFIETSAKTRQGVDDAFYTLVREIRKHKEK
Sequence of K-Ras G13C (P62937 whole entry): as the sequence (P62937 whole entry) above
Sequence of KRAS WT (P01116-2 other isoform, or with tags, fused parts or gaps): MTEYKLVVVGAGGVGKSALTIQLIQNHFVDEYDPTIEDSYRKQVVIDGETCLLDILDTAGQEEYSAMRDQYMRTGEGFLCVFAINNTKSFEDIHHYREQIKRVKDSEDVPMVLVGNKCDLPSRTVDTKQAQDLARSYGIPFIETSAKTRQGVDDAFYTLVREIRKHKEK
Sequence of KRAS WT (P62937 whole entry): as the sequence (P62937 whole entry) above
Sequence of NRAS G12C (P01111 whole entry G12C): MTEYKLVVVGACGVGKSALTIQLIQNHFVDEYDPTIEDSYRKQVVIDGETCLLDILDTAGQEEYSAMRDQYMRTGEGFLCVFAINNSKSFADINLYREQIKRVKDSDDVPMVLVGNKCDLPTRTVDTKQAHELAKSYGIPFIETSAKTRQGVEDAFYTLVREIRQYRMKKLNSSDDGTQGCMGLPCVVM
Sequence of NRAS G12C (P62937 whole entry): as the sequence (P62937 whole entry) above

| IC50 (NCI-H358 (K-Ras G12C)) | Structure (SMILES) | IC50 (KRAS G12V) | IC50 (NRAS G12C) | IC50 (KRAS WT) | IC50 (KRAS G12D) | IC50 (K-Ras G13C) | IC50 (KRAS G13D) | IC50 (K-Ras G12C) | IC50 (KRAS G12S) | IC50 (NCI-H358 (K-Ras G12C); Homo sapiens, NCI-H358, 120 h) | EC50 [1] |
| --- | --- | --- | --- | --- | --- | --- | --- | --- | --- | --- | --- |
| – | CCn1c(-c2cccnc2[C@H](C)OC)c2c3cc(ccc31)-c1cccc(c1)C[C@H](NC(=O)[C@H](C(C)C)N(C)C(=O)[C@H]1CCN(C(=O)C#CCN(C)C)C1)C(=O)N1CCC[C@H](N1)C(=O)OCC(C)(C)C2 (atropisomer, axis not shown) [Example A121] | 1000 to 10000 nM and > 10000 nM | 10 to 100 nM and < 10 nM | 1000 to 10000 nM and > 10000 nM | 1000 to 10000 nM | 10 to 100 nM and 1000 to 10000 nM | 1000 to 10000 nM | 10 to 100 nM and < 10 nM | 1000 to 10000 nM and > 10000 nM | 10 to 100 nM | < 5000 nM |
| – | C=CS(=O)(=O)N1CC[C@H](C(=O)N(C)[C@H](C(=O)N[C@H]2Cc3cccc(c3)-c3ccc4c(c3)c(c(-c3cccnc3[C@H](C)OC)n4CC)CC(C)(C)COC(=O)[C@@H]3CCCN(N3)C2=O)C(C)C)C1 (atropisomer, axis not shown) [Example A124] | 1000 to 10000 nM and > 10000 nM | 10 to 100 nM and 1000 to 10000 nM | 1000 to 10000 nM and > 10000 nM | > 10000 nM | 10 to 100 nM and 1000 to 10000 nM | > 10000 nM | 10 to 100 nM and 1000 to 10000 nM | 1000 to 10000 nM and > 10000 nM | 10 to 100 nM | < 5000 nM |
| – | CCn1c(-c2cccnc2[C@H](C)OC)c2c3cc(ccc31)-c1cc(O)cc(c1)C[C@H](NC(=O)[C@H](C(C)C)N(C)C(=O)[C@H]1CCN(C(=O)C#CCN(C)C)C1)C(=O)N1CCC[C@H](N1)C(=O)OCC(C)(C)C2 (atropisomer, axis not shown) [Example A131] | 100 to 1000 nM and 1000 to 10000 nM | < 10 nM | 100 to 1000 nM and 1000 to 10000 nM | 1000 to 10000 nM and 100 to 1000 nM | 10 to 100 nM and < 10 nM | 100 to 1000 nM and 1000 to 10000 nM | < 10 nM | 100 to 1000 nM and 1000 to 10000 nM | < 10 nM | < 5000 nM |
| – | C=CS(=O)(=O)N1CC[C@H](C(=O)N(C)[C@H](C(=O)N[C@H]2Cc3cc(O)cc(c3)-c3ccc4c(c3)c(c(-c3cccnc3[C@H](C)OC)n4CC)CC(C)(C)COC(=O)[C@@H]3CCCN(N3)C2=O)C(C)C)C1 (atropisomer, axis not shown) [Example A132] | 1000 to 10000 nM and 10 to 100 nM | 10 to 100 nM and < 10 nM | 1000 to 10000 nM and 10 to 100 nM | 1000 to 10000 nM and > 10000 nM | 10 to 100 nM and < 10 nM | 100 to 1000 nM and 1000 to 10000 nM | 10 to 100 nM and < 10 nM | 100 to 1000 nM and 1000 to 10000 nM | 10 to 100 nM | < 5000 nM |
| – | CCn1c(-c2cccnc2COC)c2c3cc(ccc31)-c1cc(O)cc(c1)C[C@H](NC(=O)[C@H](C(C)C)N(C)C(=O)[C@H]1CCN(C(=O)C#CCOC)C1)C(=O)N1CCC[C@H](N1)C(=O)OCC(C)(C)C2 (atropisomer, axis not shown) [Example A135] | 100 to 1000 nM and 1000 to 10000 nM | 10 to 100 nM and < 10 nM | 1000 to 10000 nM and > 10000 nM | 1000 to 10000 nM and > 10000 nM | 10 to 100 nM and 100 to 1000 nM | 1000 to 10000 nM and > 10000 nM | 10 to 100 nM and < 10 nM | 100 to 1000 nM and 1000 to 10000 nM | 10 to 100 nM | < 5000 nM |
| – | CCn1c(-c2cccnc2COC)c2c3cc(ccc31)-c1cccc(c1)C[C@H](NC(=O)[C@H](C(C)C)N(C)C(=O)[C@H]1CCN(C(=O)C#CCN(C)C)C1)C(=O)N1CCC[C@H](N1)C(=O)OCC(C)(C)C2 (atropisomer, axis not shown) [Example A138] | 1000 to 10000 nM | 10 to 100 nM | 1000 to 10000 nM | 1000 to 10000 nM | 100 to 1000 nM | 1000 to 10000 nM | 10 to 100 nM | > 10000 nM | < 10 nM | < 5000 nM |
| < 10 nM | CCn1c(-c2cncnc2C(C)C)c2c3cc(ccc31)-c1cc(O)cc(c1)C[C@H](NC(=O)[C@H](C(C)C)N(C)C(=O)[C@H]1CCN(C(=O)C#CCN(C)C)C1)C(=O)N1CCC[C@H](N1)C(=O)OCC(C)(C)C2 (atropisomer, axis not shown) [Example A155] | 100 to 1000 nM and 10 to 100 nM | 10 to 100 nM and < 10 nM | 1000 to 10000 nM and 10 to 100 nM | 1000 to 10000 nM and 100 to 1000 nM | 10 to 100 nM and < 10 nM | 1000 to 10000 nM and 10 to 100 nM | 10 to 100 nM | 1000 to 10000 nM and 10 to 100 nM | 10 to 100 nM | < 5000 nM |
